Laboratory results published in publication PMC10786919, “Design-rules for stapled peptides with in vivo activity and their application to Mdm2/X antagonists” (Nature Communications, 2024).
In brackets after ≈: the same amount, converted by molar mass. Like-named read-outs stand apart in the source and are kept apart here. Positions of bridges follow the written chain, without caps; N, C: chain ends. Non-standard residues stand in square brackets, D forms with d. Residues, ends and D or L forms follow the SMILES beside them. Lys(N3) = [N-]=[N+]=NCCCC[C@H](N)C(=O)O; Gla = N[C@@H](CC(C(=O)O)C(=O)O)C(=O)O; R8 = C=CCCCCCC[C@@](C)(N)C(=O)O; Cba = N[C@@H](CC1CCC1)C(=O)O; S5 = C=CCCC[C@](C)(N)C(=O)O; Ahx = NCCCCCC(=O)O; βAla = NCCC(=O)O

What was measured:
[1] = system: Jump-In T-REx CHO-K1 BLA cells; test: cells; assay type: cell-based; details: for EC50: read-out: TETCHO: Counterscreen EC50
[2] = Solubility assay (kinetic solubility, PBS pH 7); assay type: physicochemical
Procedure, shortened: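 Next, measure peak areas of sample and standard. Finally, multiply their ratio by the standard concentration to obtain solubility (µM).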

[3] = system: p53 responsive β-lactamase reporter in HCT116 cells; test: cells; assay type: cell-based
Procedure, shortened: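 HCT116 cells stably carrying a p53-responsive β-lactamase reporter, seeded at 8000 cells/well, with 0.5% DMSO final. Reporter activity read by ToxBLAzer Dual Screen. Values are geometric means of at least three biological replicates.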

[4] = system: HCT116 cells; test: Lactate dehydrogenase (LDH) release assay; assay type: cell-based
Procedure, shortened: (§1)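 HCT116 cells stably carrying a p53-responsive β-lactamase reporter were seeded at 8000 cells per well with a final DMSO level of 0.5%. Membrane integrity was assessed by lactate dehydrogenase release using a homogeneous fluorometric kit. Values are geometric means of at least three biological replicates.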

[5] = Lactate dehydrogenase (LDH) release assay; assay type: cell-based
Procedure, shortened: as §1

[6] = system: cells transiently transfected with the NanoLuc-HaloTag vector; test: Nanoclick permeability assay; details: for Nanoclick permeability assay % Effect: 4Hr
Procedure, shortened: (§2)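 Azido-peptide permeability was read as loss of NanoBRET signal (donor 450 nm, acceptor 610 nm) after adding NanoBret618-azide at 10 μM final.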

[7] = Nanoclick permeability assay
Procedure, shortened: as §2

[8] = Experimental LogD (partition coefficient); details: not stated, Partition Coeff LogD
[9] = target: T1, human Mdm2 1–125 (Homo sapiens, UniProt Q00987); test: Mdm2 binding by competitive fluorescence anisotropy assay (FP binding); details: Binding KD
T1 construct: GST (N); His6 (internal); TEV cleavage site (ENLYFQG) (internal); made in house; host or cells: BL21 (DE3) Rosetta T1R Escherichia coli
T1 sequence (Q00987 with tags, fused parts or gaps): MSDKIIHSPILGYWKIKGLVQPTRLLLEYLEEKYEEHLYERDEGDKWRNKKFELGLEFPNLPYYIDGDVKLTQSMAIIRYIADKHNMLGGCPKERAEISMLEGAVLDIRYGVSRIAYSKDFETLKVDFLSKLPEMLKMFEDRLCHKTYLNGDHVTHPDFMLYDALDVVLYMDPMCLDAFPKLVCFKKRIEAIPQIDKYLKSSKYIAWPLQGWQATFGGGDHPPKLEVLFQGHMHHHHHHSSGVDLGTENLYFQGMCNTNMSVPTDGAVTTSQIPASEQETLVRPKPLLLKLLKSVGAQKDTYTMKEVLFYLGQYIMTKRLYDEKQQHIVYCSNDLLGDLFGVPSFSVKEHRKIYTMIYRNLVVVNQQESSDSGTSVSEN
From the text: The TEV (tobacco etch virus) cleavage site was changed from ENLYFQS to ENLYFQG to give a fusion protein with the following sequence:
[P] is the protein concentration (Mdm2), [L] is the labeled peptide concentration, r is the anisotropy measured, r0 is the anisotropy of the free peptide, rb is the anisotropy of the Mdm2–FAM-labeled peptide complex, Kd is the dissociation constant, [L]t is the total FAM labeled peptide concentration, and [P]t is the total Mdm2 concentration. […] This value was then used to determine apparent Kd values of the respective competing ligands in subsequent competition assays in fluorescence anisotropy experiments.
The competing molecules were then titrated against the complex of the FAM-labeled peptide and protein. Apparent Kd values were determined by fitting the experimental data to equations shown below:2 r=ro+(rb−ro)×2(d^2−3e)cos(θ/3)−9/3Kd1+2(d^2−3e)cos(θ/3)−d 3 d=Kd1+Kd2+[L]st+[L]t−Pt 4 e=Lt−PtKd1+Lst+PtKd2+Kd1Kd2 5 f=−Kd1Kd2[P]t 6 θ=arcos−2d^3+9de−27f/2(d^2−3e)^3
[L]st and [L]t denote labeled ligand and total unlabeled ligand input concentrations, respectively. Kd2 is the dissociation constant of the interaction between the unlabeled ligand and the protein. In all competition experiments, it is assumed that [P]t > [L]st, otherwise considerable amounts of free labeled ligand would always be present and would interfere with measurements. […] The FAM-labeled peptide was dissolved in dimethyl sulfoxide (DMSO) at 1 mM and diluted into experimental buffer. Readings were carried out with an Envision Multilabel Reader (PerkinElmer). […] Curve-fitting was carried out using Prism 4.0 (GraphPad). […] Negative control titrations of the ligands under investigation were also carried out with the fluorescently labeled peptide (in the absence of Mdm2) to ensure no interactions were occurring between the ligands and the FAM-labeled peptide. […] Measurements were taken a minimum of three times (biological replicates) and values are reported as geometric means of the replicates.

[10] = system: CellSensor p53RE-bla HCT-116 Cell Line; details: read-out: Proliferation EC50 HCT116 (On-target); HCT116
Procedure, shortened: (§3)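 Compound dilution series (10 points, 3-fold, 10 mM top stock in DMSO) tested on overnight-plated Ca Ski cells in RPMI1640/10% FBS and on blasticidin-selected p53RE-bla HCT-116 cells in McCoy's 5A; read-out was CellTiter-Glo 2.0 luminescence after room-temperature equilibration.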

[11] = system: Ca Ski cell line; details: Ca Ski
Procedure, shortened: as §3

[12] = EPSA; assay type: physicochemical; details: EPSA
[13] = pH 7, aqueous buffer, kinetic from dmso stock, pH 7, PBS, read-out: Solubility
[14] = 0% FBS 4Hr, read-out: p53 reporter assay EC50
[15] = 0% FBS 4Hr, read-out: LDH: Cytotoxicity assay EC50
[16] = 10% FBS 16Hr, read-out: LDH: Cytotoxicity assay EC50

Row | Compound | TETCHO: Counterscreen % Effect ([1]; 0% FBS 4Hr) [%] | EC50 ([1]; 0% FBS 4Hr) [µM] | TETCHO: Counterscreen % Effect ([1]; 10% FBS 16Hr) [%] | EC50 ([1]; 10% FBS 16Hr) [µM] | solubility kinetic [2, 13] [µM] | p53 reporter assay % Effect ([3]; 0% FBS 4Hr) [%] | EC50 [3, 14] [µM] | p53 reporter assay % Effect ([3]; 10% FBS 16Hr) [%] | LDH: Cytotoxicity assay % Effect ([4]; 0% FBS 4Hr) [%] | LDH: Cytotoxicity assay % Effect ([4]; 10% FBS 16Hr) [%] | EC50 [5, 15] [µM] | EC50 [5, 16] [µM] | Nanoclick permeability assay % Effect [6] [%] | cell entry EC50 [7] [µM] | logD [8] | also measured
1 | CC(=O)N[C@@H](CCCCN=[N+]=[N-])C(=O)NCCC(=O)N[C@@H](CC(C)C)C(=O)N[C@H](C(=O)N[C@@H](Cc1ccccc1)C(=O)N[C@]1(C)CCCCCCC=CCCC[C@@](C)(C(=O)N[C@@H](C)C(=O)N[C@@H](CC(N)=O)C(=O)N[C@@H](C)C(=O)N[C@@H](C)C(=O)N[C@@H](C)C(=O)N[C@H](C)C(N)=O)NC(=O)[C@H](CC2CCC2)NC(=O)[C@H](CCC(N)=O)NC(=O)[C@H](C)NC(=O)[C@H](Cc2c[nH]c3ccccc23)NC(=O)[C@H](Cc2ccc(O)cc2)NC(=O)[C@H](CCC(=O)O)NC1=O)[C@@H](C)O [MP-967, AZIDE-KK-ATSP-7041 (L1A,T2A,E5A,Q9A,S12A)] (Ac-[Lys(N3)][βAla]LTF[R8]EYWAQ[Cba][S5]ANAAA[dA]-NH2; staple 6-13) | -0.6324 | > 50.4 | -28.5 | > 50.4 | 161 (≈ 356 µg/mL) | 98.42 | 0.524 | 97.47 | 5.243 | 11.93 | > 50.7 | > 50.7 | 137.2 | 3.89 | 3.08 | EC50 ([3]; 10% FBS 16Hr, read-out: p53 reporter assay EC50): 0.937 µM
2 | CC(=O)N[C@@H](CCCCN=[N+]=[N-])C(=O)NCCC(=O)N[C@@H](CC(C)C)C(=O)N[C@H](C(=O)N[C@@H](Cc1ccccc1)C(=O)N[C@]1(C)CCCCCCC=CCCC[C@@](C)(C(=O)N[C@@H](CO)C(=O)N[C@@H](C)C(=O)N[C@@H](C)C(N)=O)NC(=O)[C@H](CC2CCC2)NC(=O)[C@H](CCC(N)=O)NC(=O)[C@H](C)NC(=O)[C@H](CCC(=O)O)NC(=O)[C@H](Cc2ccc(O)cc2)NC(=O)[C@H](CCC(=O)O)NC1=O)[C@@H](C)O [Peptide W7E] |  |  |  |  |  |  |  |  |  |  |  |  |  |  |  | shift of NanoClick permeability vs MP-081 ([6]; Glu scan): ~ 34 x
3 | CC(=O)N[C@@H](CCC(=O)O)C(=O)N[C@@H](CCC(=O)O)C(=O)N[C@@H](CCC(=O)O)C(=O)N[C@@H](CCCCN=[N+]=[N-])C(=O)NCCCCCC(=O)N[C@H](C(=O)N[C@@H](CO)C(=O)N[C@@H](Cc1ccccc1)C(=O)N[C@]1(C)CCCCCCC=CCCC[C@@](C)(C(N)=O)NC(=O)[C@H](CC(C)C)NC(=O)[C@H](CC(C)C)NC(=O)[C@H](C)NC(=O)[C@H](Cc2c[nH]c3ccccc23)NC(=O)[C@H](Cc2c[nH]c3ccccc23)NC(=O)[C@H](Cc2ccc(O)cc2)NC(=O)[C@H](CCC(=O)O)NC1=O)[C@@H](C)O [MP-9662] (Ac-EEE[Lys(N3)][Ahx]TSF[R8]EYWWALL[S5]-NH2; staple 9-17) | 0.684 | > 50.6 |  |  | 33 (≈ 76 µg/mL) |  | > 50 |  |  |  |  |  | 111.3 |  | 1.86 | TETCHO: Counterscreen % Effect ([1]; 0% FBS 16Hr): 0.2782%; EC50 ([1]; 0% FBS 16Hr): > 50 µM; EC50 ([5]; LDH: Cytotoxicity assay EC50): > 50 µM; cell entry EC50 ([7]; Nanoclick permeability assay EC50): 0.637 µM
4 | CC(=O)N[C@@H](CCCCN=[N+]=[N-])C(=O)NCCC(=O)N[C@@H](CC(C)C)C(=O)N[C@H](C(=O)N[C@@H](Cc1ccccc1)C(=O)N[C@]1(C)CCCCCCC=CCCC[C@@](C)(C(=O)N[C@@H](C)C(=O)N[C@@H](CCC(=O)O)C(=O)N[C@@H](C)C(=O)N[C@@H](C)C(=O)N[C@@H](C)C(=O)N[C@H](C)C(N)=O)NC(=O)[C@H](CC2CCC2)NC(=O)[C@H](CCC(N)=O)NC(=O)[C@H](C)NC(=O)[C@H](Cc2c[nH]c3ccccc23)NC(=O)[C@H](Cc2ccc(O)cc2)NC(=O)[C@H](CCC(=O)O)NC1=O)[C@@H](C)O [MP-965, AZIDE-ATSP-7041 (E5A,S12A)] (Ac-[Lys(N3)][βAla]LTF[R8]EYWAQ[Cba][S5]AEAAA[dA]-NH2; staple 6-13) | -2.385 | > 50.4 | -17.5 | > 50.4 | 161 (≈ 358 µg/mL) | 97.76 | 1.11 | 86.7 | -4.408 | 5.517 | > 50.7 | > 50.7 | 110.3 | 0.581 | 2.69 | EC50 ([3]; read-out: Cell EC50 (16 hr, 10% FBS), p53 reporter assay, 16 hr, 10% FBS): 2.2 µM
5 | CC(=O)N[C@@H](CCCCN=[N+]=[N-])C(=O)NCCC(=O)N[C@@H](CC(C)C)C(=O)N[C@H](C(=O)N[C@@H](Cc1ccccc1)C(=O)N[C@]1(C)CCCCCCC=CCCC[C@@](C)(C(=O)N[C@@H](CC(C(=O)O)C(=O)O)C(=O)N[C@@H](C)C(=O)N[C@@H](C)C(=O)N[C@@H](C)C(=O)N[C@@H](C)C(=O)N[C@H](C)C(N)=O)NC(=O)[C@H](CC2CCC2)NC(=O)[C@H](CCC(N)=O)NC(=O)[C@H](C)NC(=O)[C@H](Cc2c[nH]c3ccccc23)NC(=O)[C@H](Cc2ccc(O)cc2)NC(=O)[C@H](CCC(=O)O)NC1=O)[C@@H](C)O [MP-897] (Ac-[Lys(N3)][βAla]LTF[R8]EYWAQ[Cba][S5][Gla]AAAA[dA]-NH2; staple 6-13) |  |  |  |  | 163 (≈ 370 µg/mL) |  |  |  |  |  |  |  |  | 2.27 | 2.25 | Kd [9]: < 0.001 µM; EC50 [10]: 0.79 µM; Proliferation % inhibition at 50 µM Ca Ski ([11]; 50 µM): -19.1%; EC50 ([11]; read-out: Proliferation EC50 Ca Ski (Off-target)): > 49.8 µM; LDH: Cytotoxicity assay: % Effect ([4]; 0% FBS 4Hr): 6.465%; LDH: Cytotoxicity assay: % Effect ([4]; 10% FBS 16Hr): 20.53%; EC50 ([5]; 0% FBS 4Hr, read-out: LDH: Cytotoxicity assay: EC50): > 50.7 µM; EC50 ([5]; 10% FBS 16Hr, read-out: LDH: Cytotoxicity assay: EC50): > 50.7 µM; EPSA [12]: 257 A^2
6 | CC(=O)N[C@@H](CCCCN=[N+]=[N-])C(=O)NCCC(=O)N[C@@H](CC(C)C)C(=O)N[C@H](C(=O)N[C@@H](Cc1ccccc1)C(=O)N[C@]1(C)CCCCCCC=CCCC[C@@](C)(C(=O)N[C@@H](CCO)C(=O)N[C@@H](CCO)C(=O)N[C@@H](Cc2ccccc2)C(=O)N[C@@H](CCO)C(=O)N[C@@H](CCO)C(=O)N[C@@H](Cc2ccccc2)C(N)=O)NC(=O)[C@H](CC2CCC2)NC(=O)[C@H](CCC(N)=O)NC(=O)[C@H](C)NC(=O)[C@H](Cc2c[nH]c3ccccc23)NC(=O)[C@H](Cc2ccc(O)cc2)NC(=O)[C@H](CCC(=O)O)NC1=O)[C@@H](C)O [MP-803] |  |  |  |  |  |  |  |  |  |  |  |  |  |  |  | solubility kinetic ([2]; pH 7, Solubility): 1 µM (≈ 2.44 µg/mL); cell entry EC50 ([6]; 4 h): 6.86 µM
